# Data: US4343808A, “Method of inhibiting sickling of sickle erythrocytes” (The Dow Chemical Company, priority 1980, dated 1982)
# Columns and labels:
# Hb-S = Hb-S (Homo sapiens, UniProt P68871+P69905, E7V); assay: Oxygen-Affinity Assay (whole Hb-S blood); type: cell-based; conditions: 37° C.
# Experimental: The compounds described herein were tested in an "Oxygen-Affinity Assay" to measure the ability of the compound to influence the Hb-S oxygen affinity. There is a relationship between oxygen binding and Hb-S gelation and thus a measure of oxygen affinity is an index of Hb-S aggregation within the red blood cell. Hemoglobin S polymers decrease the overall oxygen affinity. Thus a return to normal of Hb-S oxygen affinity is a measure of decreased gelation.
# For measurements of oxygen equilibria whole Hb-S blood was equilibrated in a tonometer at 37° C. and measurements were made in the presence of a 10 millimolar (mM) concentration of the test compound. Some of the compounds were also tested at a 5 mM concentration. The whole blood pH, oxygen tension, and blood PO2 were measured.
# The percentage of oxygen saturation was plotted against the partial pressure of oxygen (mm Hg). The P50 value (oxygen tension at 50% saturation) was determined for each control and treated whole blood sample and the difference (ΔP50) between the control and treated whole blood sample noted. As used herein, a negative ΔP50 represents a change toward a normal Hb-S oxygen affinity and thus is a measure of the test compound's ability to inhibit the sickling of sickle erythrocytes.
# [1] = tested on: sickle erythrocytes (sickle cell blood); assay: Reverse Erythrocyte Morphology, chemically induced sickling (sodium metabisulfite); type: cell-based, human
# Experimental: (§1) Blood collected from individuals with homozygous sickle cell disease, as well as normal blood, was anticoagulated with ethylenediaminetetraacetic acid (EDTA) and refrigerated until used. To portions of the blood samples were added appropriate volumes of a solution of the compound to be tested so that final concentrations of 0.0125 molar (M), 0.025 M, 0.05 M or 0.1 M were obtained, and the mixtures were incubated at 37° C. for 30 minutes. The test compounds were dissolved in saline. Appropriate volumes of saline were added to the control samples. Urea in invert sugar (UIS) at 0.05 M to 1.5 M concentrations was used as an agent capable of transforming sickled cells into normal forms and was therefore used as a positive control.
# (§2) Sickling was induced chemically by reducing the blood samples with an equal volume of a 2% solution of sodium metabisulfite in phosphate-buffered saline for 30 minutes.
# (§3) After the sickling stimulus, slides were prepared. A volume of 0.2 ml of sickled cells were fixed in 1.0 ml of 3.2% glutaraldehyde in 0.1 M cacodylic buffer. Wet slides were prepared and sealed.
# (§4) The slides were scored for normal cells (Typ.), atypical cells (Atyp.) and sickled cells (Sickle) on the basis of counting 300 cells per slide.
# (§5) The compound 2-((4-cyanophenoxy)methyl)-2-imidazoline p-toluenesulfonate (Example 2) was tested for its ability to reverse the sickling process by first applying the hereinabove noted sickling stimuli to the sickle cell blood and then adding the test compound to the red cell suspensions.
# Toxicity (LD50) in mice = conditions: mouse, in vivo, ip, intraperitoneal injection
# [2] = tested on: sickle erythrocytes (intact sickle cells); assay: Blockade Erythrocyte Morphology, deoxygenation induced sickling; type: cell-based, human; conditions: for interference with deoxygenation induced sickling: Table 1
# Experimental: (§6) The compound 2-((4-cyanophenoxy)methyl)-2-imidazoline p-toluenesulfonate (Example 2) and 2-((3-cyanophenoxy)methyl)-2-imidazoline p-toluenesulfonate (Example 4) were tested for anti-sickling activity using a suspension of intact sickle cells as follows:
# as §1
# (§7) Anoxic sickling (deoxygenation) was induced by exposing sickle blood to a hydrated 95% nitrogen, 5% carbon dioxide atmosphere for 60 minutes.
# as §3, §4
# [3] = tested on: sickle erythrocytes (intact sickle cells); assay: Blockade Erythrocyte Morphology, chemically induced sickling (sodium metabisulfite); type: cell-based, human
# Experimental: as §6, §1, §2, §3, §4
# [4] = tested on: sickle erythrocytes (sickle cell blood); assay: Reverse Erythrocyte Morphology, deoxygenation induced sickling; type: cell-based, human
# Experimental: as §1, §7, §3, §4, §5
# [5] = target: T1, deoxyhemoglobin S (Deoxy Hb-S) (Homo sapiens, UniProt P68871+P69905, E7V); assay: Solubility of deoxyhemoglobin S (hemoglobin gelation); type: biochemical; conditions: 10 mM
# T1 construct: native tetramer alpha2 betaS2
# Experimental: The compound 2-((3-cyanophenoxy)methyl)-2-imidazoline p-toluenesulfonate was tested to determine its ability to inhibit sickle erythrocyte hemoglobin gelation as follows:
# The solubility of deoxyhemoglobin S (Deoxy Hb-S) was determined utilizing substantially the same procedure described by Behe, M. J., Englander, S. W., Biochemistry 18: 4196-4201 (1979). Assays were done to determine the equilibrium solubility of Hb-S in the presence of inhibitor (i.e., test compound). […] Test mixtures were placed in a 4 centimeter (cm) length of thin quartz tubing sealed at one end, and then incubated at 37° C. for two hours to achieve gelation, and then re-equilibrated in a water bath (20° C.) for 20 minutes. The quartz tubing containing the test mixture was then placed in a glycerol filled centrifuge tube (topped by a rubber ring to center the quartz tubing) and centrifuged for two hours at 140,000 times gravity. […] The concentration of the hemoglobin in the supernatant was determined by measuring the absorbance at 540 nanometers (nm) after a 300-fold dilution with normally oxygenated buffer.
# The Relative Solubility is a measure of the ability of the test compound to increase the solubility of deoxyhemoglobin S and is readily determined by comparing the solubility of the treated (i.e., test compound present) sample versus the control (i.e., test compound absent) sample.
# [6] = over the ranges tested (0.025-0.1 M)
# [7] = reverse, chemically induced, 0.025 M, vs control
# [8] = reverse, chemically induced, 0.05 M
# [9] = reverse, chemically induced, 0.05 M, vs control
# [10] = reverse, chemically induced, 0.1 M
# [11] = reverse, chemically induced, 0.1 M, vs control
# [12] = Homo sapiens, Erythrocyte, deoxygenation, 0.025 M, vs control, read-out: Percent Change, Sickle (sickled cells)
# [13] = Homo sapiens, Erythrocyte, deoxygenation, 0.05 M, vs control, read-out: Percent Change, Sickle (sickled cells)
# [14] = deoxygenation, 0.025 M, vs control
# [15] = deoxygenation, 0.05 M, vs control
# [16] = deoxygenation, 0.1 M, vs control
# [17] = reverse, deoxygenation, 0.025 M, vs control
# [18] = reverse, deoxygenation, 0.05 M, vs control
# [19] = reverse, deoxygenation, 0.1 M, vs control
# [20] = deoxygenation, 0.0125 M, vs control
structure (smiles),measurement,setting,value
O=[N+]([O-])c1cccc(OCC2=NCCN2)c1 [Example 1],"Δ P50 (oxygen tension at 50% saturation, difference control vs treated)",Hb-S; 5 mM,-2 mm Hg
same,"Δ P50 (oxygen tension at 50% saturation, difference control vs treated)",Hb-S; 10 mM,-10.6 mm Hg
"Cc1ccc(S(=O)(=O)O)cc1.N#Cc1ccc(OCC2=NCCN2)cc1 [Example 2, 2-((4-Cyanophenoxy)methyl)-2-imidazoline p-Toluenesulfonate]",inhibition at 25000 µM,"[1]; Homo sapiens, Erythrocyte, reverse, chemically induced, 0.025 M, vs control, read-out: Percent Change, Sickle (sickled cells)",27%
same,inhibition at 50000 µM,"[1]; Homo sapiens, Erythrocyte, reverse, chemically induced, 0.05 M, vs control, read-out: Percent Change, Sickle (sickled cells)",52%
same,inhibition at 100000 µM,"[1]; Homo sapiens, Erythrocyte, reverse, chemically induced, 0.1 M, vs control, read-out: Percent Change, Sickle (sickled cells)",48%
same,reversal of sickling induced chemically,[1]; [6],effectively reversed sickling
same,Lysis,"[1]; reverse, chemically induced, 0.025 M",-
same,"Percent Change, Atyp. (atypical cells)",[1]; [7],-49%
same,"Percent Change, Typ. (normal cells)",[1]; [7],+48%
same,Lysis,[1]; [8],± (the appearance of some cell lysis at that particular test compound concentration)
same,hemolysis (in words),[1]; [8],some hemolysis observed
same,"Percent Change, Atyp. (atypical cells)",[1]; [9],-73%
same,"Percent Change, Typ. (normal cells)",[1]; [9],+87%
same,Lysis,[1]; [10],± (the appearance of some cell lysis at that particular test compound concentration)
same,hemolysis (in words),[1]; [10],some hemolysis observed
same,"Percent Change, Atyp. (atypical cells)",[1]; [11],-96%
same,"Percent Change, Typ. (normal cells)",[1]; [11],+86%
same,LD50,Toxicity (LD50) in mice,316 mg/kg
same,"Δ P50 (oxygen tension at 50% saturation, difference control vs treated)",Hb-S; 10 mM,-9.1 mm Hg
same,inhibition at 25000 µM,[2]; [12],19%
same,inhibition at 50000 µM,[2]; [13],27%
same,inhibition at 100000 µM,"[2]; Homo sapiens, Erythrocyte, deoxygenation, 0.1 M, vs control, read-out: Percent Change, Sickle (sickled cells)",61%
same,interference with deoxygenation induced sickling,[2],interfered with deoxygenation induced sickling
same,Lysis,"[2]; deoxygenation, 0.025 M",-
same,"Percent Change, Atyp. (atypical cells)",[2]; [14],-36%
same,"Percent Change, Typ. (normal cells)",[2]; [14],+86%
same,Lysis,"[2]; deoxygenation, 0.05 M",-
same,cell lysis (in words),"[2]; deoxygenation, 0.05 M",without the appearance of cell lysis
same,"Percent Change, Atyp. (atypical cells)",[2]; [15],-36%
same,"Percent Change, Typ. (normal cells)",[2]; [15],+106%
same,Lysis,"[2]; deoxygenation, 0.1 M",± (the appearance of some cell lysis at that particular test compound concentration)
same,"Percent Change, Atyp. (atypical cells)",[2]; [16],-39%
same,"Percent Change, Typ. (normal cells)",[2]; [16],+170%
same,sickling inhibitory effect in the chemically induced test system,[3],slightly sickling inhibitory effect
same,Lysis,[3]; 0.025 M,-
same,"Percent Change, Atyp. (atypical cells)","[3]; 0.025 M, vs control",-14%
same,"Percent Change, Typ. (normal cells)","[3]; 0.025 M, vs control",+56%
same,Lysis,[3]; 0.05 M,-
same,"Percent Change, Atyp. (atypical cells)","[3]; 0.05 M, vs control",+138%
same,"Percent Change, Typ. (normal cells)","[3]; 0.05 M, vs control",+84%
same,Lysis,[3]; 0.1 M,± (the appearance of some cell lysis at that particular test compound concentration)
same,"Percent Change, Atyp. (atypical cells)","[3]; 0.1 M, vs control",-63%
same,"Percent Change, Typ. (normal cells)","[3]; 0.1 M, vs control",+78%
same,inhibition at 25000 µM,"[3]; Homo sapiens, Erythrocyte, 0.5 h, 0.025 M, vs control, read-out: Percent Change, Sickle (sickled cells)",27%
same,inhibition at 50000 µM,"[3]; Homo sapiens, Erythrocyte, 0.5 h, 0.05 M, vs control, read-out: Percent Change, Sickle (sickled cells)",29%
same,inhibition at 100000 µM,"[3]; Homo sapiens, Erythrocyte, 0.5 h, 0.1 M, vs control, read-out: Percent Change, Sickle (sickled cells)",32%
same,inhibition at 25000 µM,"[4]; Homo sapiens, Erythrocyte, reverse, deoxygenation, 0.025 M, vs control, read-out: Percent Change, Sickle (sickled cells)",47%
same,inhibition at 50000 µM,"[4]; Homo sapiens, Erythrocyte, reverse, deoxygenation, 0.05 M, vs control, read-out: Percent Change, Sickle (sickled cells)",46%
same,inhibition at 100000 µM,"[4]; Homo sapiens, Erythrocyte, reverse, deoxygenation, 0.1 M, vs control, read-out: Percent Change, Sickle (sickled cells)",41%
same,reversal of sickling induced by deoxygenation,[4]; [6],effectively reversed sickling
same,Lysis,"[4]; reverse, deoxygenation, 0.025 M",-
same,"Percent Change, Atyp. (atypical cells)",[4]; [17],-22%
same,"Percent Change, Typ. (normal cells)",[4]; [17],+133%
same,Lysis,"[4]; reverse, deoxygenation, 0.05 M",-
same,"Percent Change, Atyp. (atypical cells)",[4]; [18],-26%
same,"Percent Change, Typ. (normal cells)",[4]; [18],+142%
same,Lysis,"[4]; reverse, deoxygenation, 0.1 M",± (the appearance of some cell lysis at that particular test compound concentration)
same,hemolysis (in words),"[4]; reverse, deoxygenation, 0.1 M",some hemolysis observed
same,"Percent Change, Atyp. (atypical cells)",[4]; [19],-46%
same,"Percent Change, Typ. (normal cells)",[4]; [19],+202%
"CS(=O)(=O)c1ccc(OCC2=NCCN2)cc1.Cl [Example 3, 2-((4-(Methylsulfonyl)phenoxy)methyl)-2-imidazoline Hydrochloride]","Δ P50 (oxygen tension at 50% saturation, difference control vs treated)",Hb-S; 10 mM,-7.0 mm Hg
"Cc1ccc(S(=O)(=O)O)cc1.N#Cc1cccc(OCC2=NCCN2)c1 [Example 4, 2-((3-cyanophenoxy)methyl)-2-imidazoline p-toluenesulfonate]","Δ P50 (oxygen tension at 50% saturation, difference control vs treated)",Hb-S; 5 mM,-1 mm Hg
same,"Δ P50 (oxygen tension at 50% saturation, difference control vs treated)",Hb-S; 10 mM,-13.7 mm Hg
same,inhibition at 12500 µM,"[2]; Homo sapiens, Erythrocyte, deoxygenation, 0.0125 M, vs control, read-out: Percent Change, Sickle (sickled cells)",33%
same,inhibition at 25000 µM,[2]; [12],69%
same,inhibition at 50000 µM,[2]; [13],77%
same,interference with deoxygenation induced sickling,[2],interfered with deoxygenation induced sickling
same,Lysis,"[2]; deoxygenation, 0.0125 M",-
same,"Percent Change, Atyp. (atypical cells)",[2]; [20],-65%
same,"Percent Change, Typ. (normal cells)",[2]; [20],+201%
same,Lysis,"[2]; deoxygenation, 0.025 M",-
same,"Percent Change, Atyp. (atypical cells)",[2]; [14],-78%
same,"Percent Change, Typ. (normal cells)",[2]; [14],+316%
same,Lysis,"[2]; deoxygenation, 0.05 M",-
same,cell lysis (in words),"[2]; deoxygenation, 0.05 M",without the appearance of cell lysis
same,"Percent Change, Atyp. (atypical cells)",[2]; [15],-74%
same,"Percent Change, Typ. (normal cells)",[2]; [15],+407%
same,solubility of deoxyhemoglobin S (in words),[5],increased
"CSc1ccc(OCC2=NCCN2)cc1C [Example 5, 2-((4-(Methylthio)-m-tolyloxy)methyl)-2-imidazoline]","Δ P50 (oxygen tension at 50% saturation, difference control vs treated)",Hb-S; 5 mM,-11 mm Hg
same,"Δ P50 (oxygen tension at 50% saturation, difference control vs treated)",Hb-S; 10 mM,-14.7 mm Hg
"Cl.FC(F)(F)c1cccc(NCC2=NCCN2)c1 [Example 6, 2-((3-Trifluoromethylanilino)methyl)-2-imidazoline Hydrochloride]","Δ P50 (oxygen tension at 50% saturation, difference control vs treated)",Hb-S; 10 mM,-4.3 mm Hg
"Cl.FC(F)(F)c1cccc(OCC2=NCCN2)c1 [Example 7, 2-(3-Trifluoromethylphenoxy)methyl-2-imidazoline Hydrochloride]","Δ P50 (oxygen tension at 50% saturation, difference control vs treated)",Hb-S; 10 mM,-3.0 mm Hg
"Cl.c1ccc(OCC2=NCCN2)cc1 [Example 8, 2-(Phenoxymethyl)-2-imidazoline Hydrochloride]","Δ P50 (oxygen tension at 50% saturation, difference control vs treated)",Hb-S; 10 mM,-5.0 mm Hg
